Laboratory results from PubChem BioAssay (NCI).
Several values for one entry are separate records, joined by “and”; a condition that tells them apart may be missing. Equal entries are not always repeated.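 Test compounds were applied to cells in 96-well plates for 48 hours at 5 doses. Abbreviation: GI50, concentration required for 50% inhibition of growth. TGI marks complete inhibition of growth.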

How the values were obtained:
Assay in all cases: inhibition of tumour cell growth, NCI panel, 48 h
[1] = system: SNB-19 CNS
[2] = system: NCI-H226 lung
[3] = system: TK-10 renal
[4] = system: HT29 colon
[5] = system: HOP-92 NSCLC
[6] = system: HCT-15 colon
[7] = system: ACHN renal
[8] = system: HL-60(TB) leukemia
[9] = system: HCT-116 colon
[10] = system: U251 CNS

CC(C)=CCC[C@@H](C)C1=C(O)C(N[C@H](C)c2ccccc2)=C(C)C(=O)C1=O
TGI [1]: > 100 µM
TGI [2]: 21.1 µM
TGI [3]: 26.3 µM
TGI [4]: 14.1 µM
TGI [5]: 35.6 µM
TGI [6]: > 63.2 µM
TGI [7]: 17.1 µM
TGI [8]: 10.8 µM
TGI [9]: 20.4 µM
TGI [10]: > 100 µM

Clc1ccc(-c2cn3c(nc4ccccc43)c(-c3ccccc3)n2)cc1
TGI [1]: 32.6 µM
TGI [2]: > 100 µM
TGI [3]: 62.2 µM
TGI [4]: > 67.5 µM
TGI [5]: 40.9 µM
TGI [6]: > 100 µM
TGI [7]: 95.9 µM
TGI [8]: > 100 µM
TGI [9]: > 100 µM
TGI [10]: 25.3 µM

Cc1sc(/N=C/C2=C(O)CC(C)(C)CC2=O)nc1-c1ccccc1
TGI [1]: > 100 µM
TGI [2]: > 100 µM
TGI [3]: > 100 µM
TGI [4]: > 100 µM
TGI [5]: > 100 µM
TGI [6]: > 100 µM
TGI [7]: > 100 µM
TGI [8]: 5.93 µM
TGI [9]: > 100 µM
TGI [10]: > 100 µM

COc1cc2c(c(OC)c1OC)C(=O)c1c(O)cc(C)c(OC)c1C2=O
TGI [1]: > 100 µM
TGI [2]: > 100 µM
TGI [3]: > 100 µM
TGI [4]: > 100 µM
TGI [5]: > 100 µM
TGI [6]: > 100 µM
TGI [7]: > 100 µM
TGI [8]: > 100 µM
TGI [9]: > 100 µM
TGI [10]: > 100 µM

S=C(NCc1ccccn1)N/N=C/c1ccccn1
TGI [1]: 28.6 µM
TGI [2]: 0.163 µM
TGI [3]: > 100 µM
TGI [4]: > 100 µM
TGI [6]: > 100 µM
TGI [7]: 1.1 µM
TGI [8]: < 0.01 µM
TGI [9]: < 0.01 µM
TGI [10]: > 60.2 µM

Cc1c2cc[n+](Cc3ccc(I)cc3)cc2c(C)c2c1[nH]c1ccccc12
TGI [1]: 9.55 µM
TGI [2]: 5.27 µM
TGI [4]: > 25 µM
TGI [5]: 3.3 µM
TGI [6]: > 25 µM
TGI [8]: 1.11 µM
TGI [9]: > 16.8 µM
TGI [10]: 8.59 µM

NC(=S)NNCC(=O)CC(O)(C(F)(F)F)C(F)(F)Cl (stereo not given)
TGI [1]: > 100 µM
TGI [2]: > 100 µM
TGI [3]: > 100 µM
TGI [4]: > 100 µM
TGI [5]: > 100 µM
TGI [6]: > 100 µM
TGI [7]: > 100 µM
TGI [8]: > 100 µM
TGI [9]: > 100 µM
TGI [10]: > 100 µM

O=CN1CCN(c2ccc3ccc(=O)[nH]c3n2)CC1
TGI [1]: > 100 µM
TGI [2]: > 100 µM
TGI [3]: > 100 µM
TGI [4]: > 100 µM
TGI [5]: > 100 µM
TGI [6]: > 100 µM
TGI [7]: > 100 µM
TGI [8]: > 100 µM
TGI [9]: > 100 µM
TGI [10]: > 100 µM

COC(=O)c1ccccc1C1CN=NC12Cc1ccc(C)cc1C2=O (stereo not given)
TGI [1]: > 100 µM
TGI [2]: > 100 µM
TGI [3]: > 100 µM
TGI [4]: > 100 µM
TGI [5]: > 100 µM
TGI [6]: > 100 µM
TGI [7]: > 100 µM
TGI [8]: > 100 µM
TGI [9]: > 100 µM
TGI [10]: > 100 µM

OCCc1ccsc1-c1sc(-c2cc(CCO)c(-c3sc(-c4cc(CCO)c(-c5sccc5CCO)s4)cc3CCO)s2)cc1CCO
TGI [1]: 3.01 µM
TGI [2]: 3.86 µM
TGI [3]: 3.15 µM
TGI [4]: 3.99 µM
TGI [5]: 2.89 µM
TGI [6]: 3.52 µM
TGI [7]: 3 µM
TGI [8]: 3.61 µM
TGI [9]: 2.33 µM
TGI [10]: 2.6 µM

Cc1ccc(C(=O)N/N=C(\N=Nc2ccc([N+](=O)[O-])cc2)c2ccc(N(CCC#N)CCC#N)cc2C)cc1
TGI [1]: > 100 µM
TGI [2]: > 100 µM
TGI [3]: > 100 µM
TGI [4]: > 100 µM
TGI [5]: > 100 µM
TGI [6]: > 100 µM
TGI [7]: > 100 µM
TGI [8]: 65.7 µM
TGI [9]: > 100 µM
TGI [10]: > 100 µM

Nc1nc(Cl)c(CO)c(NCC2(CO)CCC2)n1
TGI [1]: > 100 µM
TGI [2]: > 100 µM
TGI [3]: > 100 µM
TGI [4]: > 100 µM
TGI [5]: > 100 µM
TGI [6]: > 100 µM
TGI [7]: > 100 µM
TGI [8]: > 100 µM
TGI [9]: > 100 µM
TGI [10]: > 100 µM

O=C(Nc1cccc(-n2ccc3c(NC(=O)c4ccccc4)ncnc32)c1)Nc1ccc(Cl)c(C(F)(F)F)c1
GI50 [1]: 4.41 µM
TGI [1]: 10.8 µM
GI50 [2]: 5.27 µM
TGI [2]: 11.5 µM
GI50 [3]: 2.14 µM
TGI [3]: 7.75 µM
GI50 [4]: 1.87 µM
TGI [4]: 7.87 µM
GI50 [5]: 0.556 µM
TGI [5]: 4.31 µM
GI50 [6]: 2.51 µM
TGI [6]: 10.2 µM
GI50 [7]: 1.59 µM
TGI [7]: 7.38 µM
GI50 [8]: 1.87 µM
TGI [8]: 5.28 µM
GI50 [9]: 1.85 µM
TGI [9]: 6.66 µM
GI50 [10]: 2.09 µM
TGI [10]: 8.39 µM

CC(=O)O[C@H]1[C@@H](N2CCOCC2)C[C@H]2[C@@H]3CC=C4C[C@@H](N5CCCC5)CC[C@]4(C)[C@H]3CC[C@@]21C
TGI [1]: > 100 µM
TGI [2]: > 100 µM
TGI [3]: > 100 µM
TGI [4]: > 100 µM
TGI [5]: > 100 µM
TGI [6]: > 100 µM
TGI [7]: > 100 µM
TGI [8]: > 100 µM
TGI [9]: > 100 µM
TGI [10]: > 100 µM

Cc1ccc(/C=c2\cc3oc(=O)c4cccc(c4-3)c2=O)cc1
TGI [1]: > 100 µM
TGI [3]: > 100 µM
TGI [4]: > 100 µM
TGI [5]: > 100 µM
TGI [6]: > 100 µM
TGI [7]: > 100 µM
TGI [8]: > 100 µM
TGI [9]: > 100 µM
TGI [10]: > 100 µM

COc1ccc(-c2nc3ccccc3c(=O)[nH]2)cc1
TGI [1]: > 100 µM
TGI [2]: > 100 µM
TGI [3]: > 100 µM
TGI [4]: > 100 µM
TGI [5]: > 100 µM
TGI [6]: > 100 µM
TGI [8]: > 100 µM
TGI [9]: > 100 µM
TGI [10]: > 100 µM

CCCC(=O)Nc1cc(C(=O)N2C[C@H]3C[C@@]34C2=CC(=O)c2[nH]cc(C)c24)n(COC)c1
GI50 [1]: 0.326 µM
TGI [1]: 29.1 µM and 13 µM
TGI [2]: 5.18 µM
TGI [3]: 2.87 µM
GI50 [4]: 0.296 µM
TGI [4]: 4.47 µM and 20.5 µM
GI50 [5]: 0.291 µM
TGI [5]: 2.64 µM and 0.728 µM
GI50 [6]: 0.242 µM
TGI [6]: 17.8 µM and 2.31 µM
GI50 [7]: 0.0888 µM
TGI [7]: 2.5 µM and 0.342 µM
TGI [8]: 0.23 µM
TGI [9]: 7.27 µM

Oc1c(Br)cc2c(c1Br)-c1c(c(O)c3c4c1=NCCC=4C=N3)NCC2
TGI [1]: 35.7 µM
TGI [2]: 32.8 µM
TGI [4]: 20.8 µM
TGI [5]: 35.4 µM
TGI [6]: 30.6 µM
TGI [8]: 16.9 µM
TGI [9]: 28.8 µM
TGI [10]: 24.5 µM

CCOC(=O)c1ccc(N(CCOS(C)(=O)=O)CCOS(C)(=O)=O)cc1
TGI [1]: > 100 µM
TGI [3]: > 100 µM
TGI [4]: > 100 µM
TGI [5]: > 100 µM
TGI [6]: > 100 µM
TGI [7]: 63.7 µM
TGI [8]: > 100 µM
TGI [9]: > 100 µM
TGI [10]: > 100 µM

O=c1cc(-c2cccc(OC(F)(F)F)c2)[nH]c2ccc(N3CCCC3)cc12
TGI [1]: 11.9 µM
TGI [2]: 0.000657 µM
GI50 [3]: 0.0431 µM
TGI [3]: 6.79 µM
TGI [4]: 0.00166 µM
TGI [5]: > 100 µM
TGI [7]: 51.3 µM
TGI [8]: < 0.0001 µM
TGI [9]: 0.177 µM and 1.76 µM
TGI [10]: 16.5 µM

O=C(O)CN1C(=O)c2ccc(NC(=O)C(=O)O)cc2S1(=O)=O
TGI [1]: > 100 µM
TGI [2]: > 100 µM
TGI [3]: > 100 µM
TGI [5]: > 100 µM
TGI [6]: > 100 µM
TGI [7]: > 100 µM
TGI [8]: > 100 µM
TGI [9]: > 100 µM
TGI [10]: > 100 µM
